Test system: Chlorella cells
Assay: Test of reproductive ability using chlorella cells
Format: cell-based
Conditions: number of chlorella cells after 10 days, relative value, no-treated LS medium = 100; start 1.00x10^5 cells per ml
Procedure: <Test of Reproductive Ability Using Chlorella Cells> Chlorella cells, which are green cells of […], were cultured with vibration in an inorganic-salt medium. Raw materials shown in Table 4 were added thereto, and then reproductive ability of chlorella cells (ability for increasing the number of the cells) was evaluated by comparison with the result obtained from a medium which was no-treated (i.e., only original nutrients of the inorganic salt medium). For the respective compositions, the test was repeated 3 times. The concentration of the cells was set to 1.00×10^5 cells (per ml) at the start of the test. […] As the inorganic salt medium, a Linsmaier-Skoog (LS) medium was used.

Row | Compound | proliferating ability of cells
1 | CCCO [Comparative product 4-1, Propanol, reference compound] | 96
2 | CCCCCCO [Comparative product 4-2, Hexanol, reference compound] | 93
3 | CCCCCCCCCCO [Comparative product 4-4, Decyl alcohol, reference compound] | 91
4 | CCCCCCCCO [Comparative product 4-7, Octanol, reference compound] | 95
5 | CCCCCCCCCCCCO [Invention product 4-1, Lauryl alcohol] | 115
6 | CCCCCCCCCCCCCCO [Invention product 4-2, Myristyl alcohol] | 128
7 | CCCCCCCCCCCCCCCCO [Invention product 4-4, Cetyl alcohol] | 148
8 | CCCCCCCCCCCCCCCCCCO [Invention product 4-6, Stearyl alcohol] | 168
9 | CCCCCCCC/C=C\CCCCCCCCO [Invention product 4-7, Oleyl alcohol] | 154
10 | CCCCCCCCCCCCCCCCCCCCO [Invention product 4-8, Eicosanol] | 152
11 | CCCCCCCCCCCCCCCCCCCCCCO [Invention product 4-9, Docosanol] | 130
12 | CCCCCCCCCCCCCCCCCCCCCCCCO [Invention product 4-10, Tetracosanol] | 122
13 | CCCCCCCCCCCCCCCCO [Invention product 4-15, Cetyl alcohol] | 142
14 | CCCCCCCCCCCCCCCCCCO [Invention product 4-16, Stearyl alcohol] | 156
15 | CCCCCCCCCCCCCCCCCCCCO [Invention product 4-17, Eicosanol] | 146
